Source: PMC6273037, “Synthesis, Structure and Cytotoxic Activity of Mono- and Dialkoxy Derivatives of 5,8-Quinolinedione” (Molecules, 2016)

System: not given
Experiment: not given
Conditions: not given
Work on `O=C1C(OCCCl)=C(OCCCl)C(=O)c2ncccc21` [Compound 14, 6,7-di(2-Chloroethoxy)-5,8-quinolinedione] yielded a melting point of 189 to 191 °C.
Work on `O=C1C(Cl)=C(OC2CCCCC2)C(=O)c2ncccc21` [Compound 8, 6-Chloro-7-cyclohexyloxy-5,8-quinolinedione] yielded a melting point of 123 to 124 °C.
Work on `C=CCOC1=C(OCC=C)C(=O)c2ncccc2C1=O` [Compound 13, 6,7-di(2-Propenyloxy)-5,8-quinolinedione] yielded a melting point of 135 to 136 °C.
With `CCCOC1=C(OCCC)C(=O)c2ncccc2C1=O` [Compound 12, 6,7-Dipropoxy-5,8-quinolinedione] the melting point was 133 to 135 °C.
For `CCOC1=C(Cl)C(=O)c2cccnc2C1=O` [Compound 3, 6-Chloro-7-ethoxy-5,8-quinolinedione], the melting point was 112 to 114 °C.
`CCOC1=C(OCC)C(=O)c2ncccc2C1=O` [Compound 11, 6,7-Diethoxy-5,8-quinolinedione] showed a melting point of 69 to 70 °C.
For `O=C1C(OCC(F)(F)F)=C(OCC(F)(F)F)C(=O)c2ncccc21` [Compound 15, 6,7-di(2,2,2-Trifluoroethoxy)-5,8-quinolinedione], the melting point was 110 to 111 °C.
In the case of `N#CCCOC1=C(Cl)C(=O)c2cccnc2C1=O` [Compound 7, 6-Chloro-7-(2-cyanoethoxy)-5,8-quinolinedione], the melting point is reported as 177 to 179 °C.

System: SNB-19 (human glioblastoma)
Experiment: WST-1 antiproliferative assay, glioblastoma SNB-19
Format: cell-based
Conditions: Homo sapiens, SNB-19; WST-1 test, incubation time 72 h; read-out: Human Cell Line/IC50 ± SD SNB-19
Experimental: (§1) As a reference, the cytotoxic agent cisplatin was applied.
(§2) The synthesized compounds were tested against tumor cells SNB-19 (human glioblastoma, DSMZ-German Collection of Microorganisms and Cell Cultures, Braunschweig, Germany), MDA-MB-231 (human adenocarcinoma, breast cancer; ATCC), C-32 (human melanoma; ATCC) and nontumor cells HFF-1 (normal human fibroblasts derived from foreskin, ATCC). The cultured cells were kept at 37 °C and in 5% CO2. The cells were seeded (10^3 cells/well/[…] DMEM supplemented with FBS (Fetal Bovine Serum, Lonza) to a final concentration of 10% and streptomycin 10 mg/mL and penicillin 1000 IU/mL (Sigma), using 96-well plates (Corning).
(§3) The antiproliferative effect of the synthesized compounds was determined using the Cell Proliferation Reagent WST-1 assay (Roche Diagnostics, Mannheim, Germany). […] After an exposure to the tested compounds at concentration varying in the range 0.4–400 nM/mL, the cell viability was quantified by a cell proliferation assay. […] The cytotoxic activity of the tested compound was compared to the cisplatin (positive control). The experiments were repeated in triplicate for each concentration of the tested compound. The initial concentration of the tested compounds was 1 mg/mL DMSO. […] Calculations of the IC50 values were performed using the GraphPad Prism 6 (GraphPad Software, San Diego, CA, USA).
`O=C1C(OCCCl)=C(OCCCl)C(=O)c2ncccc21` [Compound 14, 6,7-di(2-Chloroethoxy)-5,8-quinolinedione] showed an IC50 of 3.5 ± 0.3 µM.
For `O=C1C(Cl)=C(OC2CCCCC2)C(=O)c2ncccc21` [Compound 8, 6-Chloro-7-cyclohexyloxy-5,8-quinolinedione], the IC50 was 1.8 ± 0.1 µM.
`C=CCOC1=C(OCC=C)C(=O)c2ncccc2C1=O` [Compound 13, 6,7-di(2-Propenyloxy)-5,8-quinolinedione] showed an IC50 of 0.2 ± 0.01 µM.
In the case of `CCCOC1=C(OCCC)C(=O)c2ncccc2C1=O` [Compound 12, 6,7-Dipropoxy-5,8-quinolinedione], the IC50 is reported as 0.7 ± 0.02 µM.
Molecule `CCOC1=C(Cl)C(=O)c2cccnc2C1=O` [Compound 3, 6-Chloro-7-ethoxy-5,8-quinolinedione] has an IC50 of 10.3 ± 2.4 µM.
With `CCOC1=C(OCC)C(=O)c2ncccc2C1=O` [Compound 11, 6,7-Diethoxy-5,8-quinolinedione] the IC50 was 2.1 ± 0.1 µM.
With `O=C1C(OCC(F)(F)F)=C(OCC(F)(F)F)C(=O)c2ncccc21` [Compound 15, 6,7-di(2,2,2-Trifluoroethoxy)-5,8-quinolinedione] the IC50 was 14.9 ± 0.7 µM.
`N#CCCOC1=C(Cl)C(=O)c2cccnc2C1=O` [Compound 7, 6-Chloro-7-(2-cyanoethoxy)-5,8-quinolinedione] gave an IC50 of 58.3 ± 2.8 µM.

System: MDA-MB-231 (human adenocarcinoma, breast cancer)
Experiment: WST-1 antiproliferative assay, breast cancer MDA-MB-231
Format: cell-based
Conditions: Homo sapiens, MDA-MB-231; WST-1 test, incubation time 72 h; read-out: Human Cell Line/IC50 ± SD MDA-MB-231
Experimental: as §1, §2, §3
Work on `O=C1C(OCCCl)=C(OCCCl)C(=O)c2ncccc21` [Compound 14, 6,7-di(2-Chloroethoxy)-5,8-quinolinedione] yielded an IC50 of 10.9 ± 1.4 µM.
Molecule `O=C1C(Cl)=C(OC2CCCCC2)C(=O)c2ncccc21` [Compound 8, 6-Chloro-7-cyclohexyloxy-5,8-quinolinedione] has an IC50 of 3.5 ± 0.3 µM.
`C=CCOC1=C(OCC=C)C(=O)c2ncccc2C1=O` [Compound 13, 6,7-di(2-Propenyloxy)-5,8-quinolinedione] showed an IC50 of 12.6 ± 2.7 µM.
Work on `CCCOC1=C(OCCC)C(=O)c2ncccc2C1=O` [Compound 12, 6,7-Dipropoxy-5,8-quinolinedione] yielded an IC50 of 3 ± 0.3 µM.
`CCOC1=C(Cl)C(=O)c2cccnc2C1=O` [Compound 3, 6-Chloro-7-ethoxy-5,8-quinolinedione] showed an IC50 of 24 ± 2.8 µM.
For `CCOC1=C(OCC)C(=O)c2ncccc2C1=O` [Compound 11, 6,7-Diethoxy-5,8-quinolinedione], the IC50 was 18.6 ± 2 µM.
Work on `O=C1C(OCC(F)(F)F)=C(OCC(F)(F)F)C(=O)c2ncccc21` [Compound 15, 6,7-di(2,2,2-Trifluoroethoxy)-5,8-quinolinedione] yielded an IC50 of 2.7 ± 0.1 µM.
`N#CCCOC1=C(Cl)C(=O)c2cccnc2C1=O` [Compound 7, 6-Chloro-7-(2-cyanoethoxy)-5,8-quinolinedione] gave an IC50 of 164 ± 3.9 µM.

Same assay, conditions: breast cancer (MDA-MB-231) cell line
For `O=C1C(OCC(F)(F)F)=C(OCC(F)(F)F)C(=O)c2ncccc21` [Compound 15, 6,7-di(2,2,2-Trifluoroethoxy)-5,8-quinolinedione], the “selectivity index (SI)” value was 4.6.

System: HFF-1 (normal human fibroblasts)
Experiment: WST-1 antiproliferative assay, normal fibroblasts HFF-1
Format: cell-based
Conditions: Homo sapiens, HFF-1; WST-1 test, incubation time 72 h; Neg = Negative in the concentration used; read-out: Human Cell Line/IC50 ± SD HFF-1
Experimental: as §1, §2, §3
Work on `O=C1C(OCCCl)=C(OCCCl)C(=O)c2ncccc21` [Compound 14, 6,7-di(2-Chloroethoxy)-5,8-quinolinedione] yielded an IC50 of 1.9 ± 0.2 µM.
For `O=C1C(Cl)=C(OC2CCCCC2)C(=O)c2ncccc21` [Compound 8, 6-Chloro-7-cyclohexyloxy-5,8-quinolinedione], the IC50 was 13.9 ± 3 µM.
Work on `CCOC1=C(Cl)C(=O)c2cccnc2C1=O` [Compound 3, 6-Chloro-7-ethoxy-5,8-quinolinedione] yielded an IC50 of 1.3 ± 0.5 µM.
With `O=C1C(OCC(F)(F)F)=C(OCC(F)(F)F)C(=O)c2ncccc21` [Compound 15, 6,7-di(2,2,2-Trifluoroethoxy)-5,8-quinolinedione] the IC50 was 12.4 ± 1.2 µM.
With `N#CCCOC1=C(Cl)C(=O)c2cccnc2C1=O` [Compound 7, 6-Chloro-7-(2-cyanoethoxy)-5,8-quinolinedione] the IC50 was 2.5 ± 0.4 µM.

Same assay, conditions: WST-1 test, incubation time 72 h; Neg = Negative in the concentration used
With `C=CCOC1=C(OCC=C)C(=O)c2ncccc2C1=O` [Compound 13, 6,7-di(2-Propenyloxy)-5,8-quinolinedione] the “Human Cell Line/IC50 ± SD HFF-1” value was “Neg”.
In the case of `CCCOC1=C(OCCC)C(=O)c2ncccc2C1=O` [Compound 12, 6,7-Dipropoxy-5,8-quinolinedione], the “Human Cell Line/IC50 ± SD HFF-1” value is reported as “Neg”.
For `CCOC1=C(OCC)C(=O)c2ncccc2C1=O` [Compound 11, 6,7-Diethoxy-5,8-quinolinedione], the “Human Cell Line/IC50 ± SD HFF-1” value was “Neg”.

System: C-32 (human melanoma)
Experiment: WST-1 antiproliferative assay, melanoma C-32
Format: cell-based
Conditions: Homo sapiens; WST-1 test, incubation time 72 h; read-out: Human Cell Line/IC50 ± SD C-32
Experimental: as §1, §2, §3
`O=C1C(OCCCl)=C(OCCCl)C(=O)c2ncccc21` [Compound 14, 6,7-di(2-Chloroethoxy)-5,8-quinolinedione] showed an IC50 of 12.1 ± 0.2 µM.
Molecule `O=C1C(Cl)=C(OC2CCCCC2)C(=O)c2ncccc21` [Compound 8, 6-Chloro-7-cyclohexyloxy-5,8-quinolinedione] has an IC50 of 1.4 ± 0.1 µM.
Molecule `C=CCOC1=C(OCC=C)C(=O)c2ncccc2C1=O` [Compound 13, 6,7-di(2-Propenyloxy)-5,8-quinolinedione] has an IC50 of 1.5 ± 0.01 µM.
Molecule `CCCOC1=C(OCCC)C(=O)c2ncccc2C1=O` [Compound 12, 6,7-Dipropoxy-5,8-quinolinedione] has an IC50 of 1.1 ± 0.1 µM.
With `CCOC1=C(Cl)C(=O)c2cccnc2C1=O` [Compound 3, 6-Chloro-7-ethoxy-5,8-quinolinedione] the IC50 was 30.7 ± 1.1 µM.
With `CCOC1=C(OCC)C(=O)c2ncccc2C1=O` [Compound 11, 6,7-Diethoxy-5,8-quinolinedione] the IC50 was 17.6 ± 1.6 µM.
Molecule `O=C1C(OCC(F)(F)F)=C(OCC(F)(F)F)C(=O)c2ncccc21` [Compound 15, 6,7-di(2,2,2-Trifluoroethoxy)-5,8-quinolinedione] has an IC50 of 10.9 ± 1.3 µM.
Work on `N#CCCOC1=C(Cl)C(=O)c2cccnc2C1=O` [Compound 7, 6-Chloro-7-(2-cyanoethoxy)-5,8-quinolinedione] yielded an IC50 of 119 ± 4.3 µM.
